Values of other authors as cited in US20020046426A1, “Application of carbonyl compounds in the process of tanning hides” (RHODIA BRASIL LTDA., priority 1999, published 2002).

Tests used:
mice = details: mouse, in vivo, po

SMILES	LD50 (mice)	irritation to the eyes (eyes)
CC(O)CC=O (centres unmarked) [aldol, 3-hydroxyl butanal]	2180 mg/kg	
C/C=C/C=O [crotonaldehyde, 2-butenal]		extremely irritant to the eyes
